Data on 2 compounds can be found in patent US8415156B2, “Recombinant laminin-521” (Biolamina AB, priority 2010, dated 2013).

One experiment deals with hES cells. Briefly: Cell survival assay, 24 hours (Example 2). Format: cell-based, human. As to conditions: O3 medium, absence of ROCK inhibitor. The procedure:
Tissue cell culture plates were coated overnight at 4° C. with sterile solutions of the ECM proteins, such as human recombinant LN-521, all at a concentration of 30 μg/ml (5 μg/cm^2). Control plates were coated with Matrigel according to the STEMCELL Technologies' instructions. Prior to use, dishes were pre-warmed in an incubator for one hour after which prewarmed O3 medium was added without additional washing of the dish. After applying a fresh LN-521 solution to a new dish, the remaining LN-521 solution could be used at least once more. All the adhesion, survival, and inhibition of survival experiments were carried out using fresh coating materials.
Briefly, 96-well plates were coated by extracellular matrix proteins as described above and blocked by O3 medium containing bovine serum albumin. The ES cells were plated at cell density of 50,000 cells/cm^2 onto extracellular matrix-coated plates and left to adhere for 1 hour in a cell incubator. After that the plates were washed 3 times with the medium to remove the non-adherent cells, and then the adherent cells were fixed for 20 minutes by 5% glutaraldehyde, stained by 0.1% Crystal Violet. (Kebo Lab, Spanga, Sweden, www.kebolab.se). After one hour and 3 washes with water, Crystal Violet was extracted with 10% acetic acid and quantified by measuring optical density at 570 nm. All the experiments were performed in quadruplicate.
The survival assay was performed as described for the cell adhesion assay above, except that the cells were left in the cell incubator for 24 hours. For inhibition of survival assay, the cells were kept in a medium with function blocking antibodies at the concentrations recommended by the manufacturer or pathway inhibitors at concentrations indicated in the text for 30 minutes, and then plated on the coated dishes. All the experiments were performed in quadruplicate.
Pluripotent hES cells express α1, α5, β1, β2 and γ1 laminin chains. To compare the adhesion and clonal survival of hES cells plated from single cell suspension to different coating substrata, hES cells growing as monolayers on LN-511 or as clusters on a feeder layer were trypsinized into single cell suspension in O3 medium and plated on cell culture dishes coated with Matrigel, LN-111, LN-511, LN-521 or a mixture of LN-511 and LN-521, in the absence or presence of a ROCK inhibitor (Y-27632) and analyzed after 24 hours.

Experiment [1] concerns human embryonic stem cell. Briefly: Survival after dissociation into single cell suspension (description). The class given is cell-based. As to conditions: O3 medium; 30 Kcells/cm^2; precoated dishes. The source says:
In other aspects, the present disclosure provides a new material, isolated laminin-521, which permits human embryonic stem cell survival after dissociation into single cell suspension. The stem cells were dissociated into single cell suspension by Trypsin-EDTA treatment, pelleted by centrifugation, resuspended into O3 medium, filtered through a 40 μm sieve, and plated at a density of 30 Kcells/cm^2 on cell culture dishes precoated by either isolated laminin-521, laminin-511, or Matrigel. After one day in culture, the cells plated on Matrigel died, as is known in the art.

For another experiment, the target named is Integrin α6β1 (Homo sapiens, UniProt P05556+P23229). The settings on record: cited from earlier work.
For the next experiment, the system named is human ES cells. The settings on record: cited from earlier work.
Another experiment has as its system mouse ES cells. As to conditions: without LIF or feeder cells; cited from earlier work.
For another experiment, the system named is HS181 cells. Briefly: Single cell survival / cell adhesion, 1 day after plating (Example 1). The class given is cell-based, human. The settings on record: O3 medium without any additives; completely dissociated HS181 cells. On the procedure:
Human ES cells were cultured on r-laminin-521-coated laboratory dishes in chemically defined O3 medium (described in Rodin et al., Nature Biotechnol., vol. 28, pp. 611-615 (2010)) at 37° C. in 5% CO2. Cells were routinely passed once every 10-12 days by exposure to Trypsin-EDTA solution (GIBCO Invitrogen) for 5 minutes at 37° C. They were then gently pipetted to break into single-cell suspension and defined trypsin inhibitor (GIBCO Invitrogen) was added. The cell suspension was centrifuged […], the supernatant discarded, the cell pellet resuspended in prewarmed O3 medium, and cells were then passed through a 40 μm sieve. After that cells were plated on new r-laminin-521-coated dishes at a concentration 30 Kcells/cm^2 (1:25-1:30 split ratio). Cells were fed once a day with fresh medium prewarmed in an incubator for 1 hour, except for the first day after a passage, when only a few drops of fresh medium were added. Control cells of the same line were cultured on Matrigel (BD Biosciences) in O3 medium as described in Rodin et al., Nature Biotechnol., vol. 28, pp. 611-615 (2010). Control cells were passaged in pieces.
Ninety-six-well tissue cell culture plates were coated overnight at 4° C. with sterile solutions of the ECM proteins mouse LN-111 (Invitrogen), human recombinant LN-511, and human recombinant LN-521, all at a concentration of 30 μg/ml (5 μg/cm^2). For control cells, BD Matrigel™ hESC qualified (BD Biosciences) was used according to the manufacturer's instructions.
The assay was performed as described (Extracellular Matrix Protocols, 2000). Briefly, 96-well plates were coated by extracellular matrix proteins as described above and blocked by O3 medium containing bovine serum albumin. The ES cells were plated at a cell density of 600 cell/mm^2 upon extracellular matrix-coated plates and were left to adhere for either 1 hour or 1 day at the cell incubator. Non-adherent cells were washed away, and adherent cells were fixed for 20 min by 5% glutaraldehyde, stained by 0.1% Crystal Violet.

Another experiment relates to myosin light chain (MLC). In words: Western blot of phosphorylated myosin light chain. Format: cell-based, human. As to conditions: one and six hours after plating. The procedure:
HS181 cells were trypsinized into single cell suspension as described above. For inhibition experiments, the cells were kept in O3 medium with blocking antibodies or pathway inhibitors for 30 minutes and then 450K cells were plated on 35 mm dishes precoated with the appropriate matrix coating. For other experiments, same number of cells was plated directly after trypsinization. […] After two washings in ice-cold PBS, the plates with cells were snap frozen in liquid nitrogen and stored at −80° C. To prepare samples for western blots and ELISA, the plates were slowly thawed and kept on ice with 100-150 μl of lysis buffer (50 mM Tris-HCl, pH7.5, 150 mM NaCl, 0.5% deoxycholate, 0.5% SDS, 1% Triton X-100, 1% Igepal, Complete™ (Roche) and Phospho-Stop™ (Roche)) on top. Then, the cells were scraped, pipetted and sheared through a 27G ¾″ needle. After that, the cell pellets were clarified by centrifugation at 16,100 rcf for 15 minutes at 4° C. For western blots, 4-12% gradient gels were used for SDS electrophoresis and the proteins were transferred to PVDF membranes. The membrane was hybridized with the antibody of interest according to the manufacturer's instructions. Chemoluminescent HRP-substrate from Amersham Biosciences was used for visualization. For the densitometry analysis the films were scanned at 2,400 dpi and analyzed by the Chemilmager5500 program (1D-Multi Line densitometry mode). […]
On the technique in general: A western blot detects proteins with antibodies after separation by electrophoresis.

Another experiment relates to Akt and MEK1. Briefly: Western blot of pathway inhibitor treated cells. Format: cell-based, human. As to conditions: cells collected one hour after plating on LN-521, vs DMSO control. An excerpt: InSolutionTM LY 294002 (a specific […]), InSolutionTM Wortmannin (a specific PI3K inhibitor), and InSolutionTM 98059 (a specific MEK1/Erk inhibitor) were purchased from Calbiochem. Antibodies to phospho-Akt (#4060), total-Akt (#9272), phospho-Erk (#9101), and total-Erk (#9102) were obtained from Cell Signaling Technology. PathScan Phospho-Akt1 sandwich ELISA kit (#7160), PathScan total Akt1 sandwich ELISA kit (#7170), PathScan Phospho-Akt2 sandwich ELISA kit (#7048), and PathScan total Akt2 sandwich ELISA kit (#7046) were also purchased from Cell Signaling Technology. Antibodies to Calnexin (#ab10286) were obtained from Abcam. Function blocking antibodies to various integrin subunits, mouse isotype antibodies, and α-dystroglycan were purchased from Millipore. Since function blocking antibodies to αV (MAB1980) and α6 (MAB1378) were presented in a solution with sodium azide, before the inhibition of survival experiment all the antibodies to alpha integrin subunits were dialyzed thrice against O3 medium for 2 hours each time. Antibodies to Lutheran receptor and α-fetoprotein, as well as rat isotype control antibodies were obtained from R&D Systems. Antibodies to Oct4, Nanog, SSEA-4, smooth muscle actin and MAP-2 were purchased from Millipore. […] For the densitometry analysis the films were scanned at 2,400 dpi and analyzed by the […]5500 program (1D-Multi Line densitometry mode). […]

Chain of Integrin α6β1 (P23229 24-1130): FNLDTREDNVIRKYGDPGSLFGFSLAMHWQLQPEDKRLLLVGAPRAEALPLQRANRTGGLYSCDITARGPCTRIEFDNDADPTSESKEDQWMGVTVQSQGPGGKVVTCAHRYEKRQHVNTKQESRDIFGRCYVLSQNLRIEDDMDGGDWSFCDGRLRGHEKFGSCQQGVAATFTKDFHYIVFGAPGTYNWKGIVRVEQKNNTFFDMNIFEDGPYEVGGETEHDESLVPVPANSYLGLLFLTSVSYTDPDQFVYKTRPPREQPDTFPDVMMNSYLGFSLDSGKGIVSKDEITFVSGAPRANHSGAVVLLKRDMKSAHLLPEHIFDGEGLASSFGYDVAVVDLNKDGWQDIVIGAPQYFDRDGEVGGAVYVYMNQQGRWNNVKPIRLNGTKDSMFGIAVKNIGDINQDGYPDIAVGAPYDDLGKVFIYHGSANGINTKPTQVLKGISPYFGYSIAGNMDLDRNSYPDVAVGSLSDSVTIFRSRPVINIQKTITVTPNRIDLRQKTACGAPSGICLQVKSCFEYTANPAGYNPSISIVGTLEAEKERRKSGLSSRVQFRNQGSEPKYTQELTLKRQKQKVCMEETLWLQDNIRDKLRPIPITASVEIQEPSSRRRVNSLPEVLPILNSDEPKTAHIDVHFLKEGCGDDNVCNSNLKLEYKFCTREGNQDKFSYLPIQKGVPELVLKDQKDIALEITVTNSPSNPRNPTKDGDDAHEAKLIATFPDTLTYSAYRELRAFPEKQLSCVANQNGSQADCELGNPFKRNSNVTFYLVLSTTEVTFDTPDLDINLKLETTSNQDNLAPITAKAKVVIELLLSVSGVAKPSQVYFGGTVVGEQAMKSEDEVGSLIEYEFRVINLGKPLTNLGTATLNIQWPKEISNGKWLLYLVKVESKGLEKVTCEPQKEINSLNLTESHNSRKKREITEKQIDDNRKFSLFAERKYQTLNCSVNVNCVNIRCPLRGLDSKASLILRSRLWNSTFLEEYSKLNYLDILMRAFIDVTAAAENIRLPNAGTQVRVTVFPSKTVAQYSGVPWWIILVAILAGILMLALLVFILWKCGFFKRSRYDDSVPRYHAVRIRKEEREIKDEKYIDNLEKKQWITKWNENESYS
Chain of Integrin α6β1 (P05556 21-798): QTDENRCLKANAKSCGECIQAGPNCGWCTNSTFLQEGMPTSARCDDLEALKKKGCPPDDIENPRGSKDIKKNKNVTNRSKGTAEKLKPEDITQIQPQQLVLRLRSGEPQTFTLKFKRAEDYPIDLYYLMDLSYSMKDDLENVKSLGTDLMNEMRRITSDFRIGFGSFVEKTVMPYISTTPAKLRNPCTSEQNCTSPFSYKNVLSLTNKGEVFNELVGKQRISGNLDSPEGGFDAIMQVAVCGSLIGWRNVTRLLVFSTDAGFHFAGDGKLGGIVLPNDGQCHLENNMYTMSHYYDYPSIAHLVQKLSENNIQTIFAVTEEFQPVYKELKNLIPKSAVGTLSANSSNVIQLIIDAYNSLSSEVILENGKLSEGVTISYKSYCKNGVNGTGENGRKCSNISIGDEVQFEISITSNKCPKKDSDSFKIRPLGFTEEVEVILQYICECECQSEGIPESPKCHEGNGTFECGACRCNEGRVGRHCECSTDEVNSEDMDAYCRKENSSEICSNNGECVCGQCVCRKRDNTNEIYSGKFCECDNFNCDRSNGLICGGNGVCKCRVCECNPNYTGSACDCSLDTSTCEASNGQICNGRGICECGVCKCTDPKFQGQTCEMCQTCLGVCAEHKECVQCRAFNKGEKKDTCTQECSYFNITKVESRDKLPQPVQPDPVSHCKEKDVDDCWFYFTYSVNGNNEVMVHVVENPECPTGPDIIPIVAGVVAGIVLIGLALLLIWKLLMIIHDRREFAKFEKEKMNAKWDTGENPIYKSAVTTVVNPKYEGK

With “LN-511: human recombinant laminin-511 coating”, the “survival of hES cells plated from single cell suspension after 24 hours” value with hES cells is recorded as “did so as single cells”. Also, the “survival of hES cells plated from single cell suspension after one day in culture” value in experiment [1] was “in most cases on laminin-511 survived and started to proliferate”. Moreover, the “binding affinity of integrin α6β1” value with Integrin α6β1 was “higher than that for LN-111”. Further, the “time human ES cells maintain pluripotency and can generate teratomas in SCID mice” value in the experiment with human ES cells was “over 3 months”. The “time of supported self-renewal of mouse ES cells” value with mouse ES cells is “over 5 months”. Also, in the experiment on HS181 cells, the “single cell survival / cells remaining attached 24 hours after plating” value is “at a less extent”. The “phosphorylation of MLC compared with cells on Matrigel and LN-111” value in the experiment with myosin light chain (MLC) was “even higher”.
On to `COc1cccc(-c2cc(=O)c3ccccc3o2)c1N` [PD 98059], for which the “efficacy of inhibitor treatment by western blot” value in the experiment on Akt and MEK1 is “confirmed”.
